Laboratory results reported in article PMC4837544, “Differential kinetic profiles and metabolism of primaquine enantiomers by human hepatocytes” (Malaria Journal, 2016).
Read-outs that look alike come from different tables or passages of the source. Blank lines part the entries; values can stand above or below the compound they belong to.

Experiments:
[1] = test system: primary human hepatocytes; experiment: Substrate depletion / intrinsic clearance of PQ and its enantiomers in cryopreserved human hepatocytes; settings: for λ elimination rate constant / t½ (initial half-life) / substrate depleted: 20 µM; for λ elimination rate constant / substrate depleted: human hepatocytes 1 million cells/mL; for λ elimination rate constant: log-linear regression 0–60 min; for substrate depleted: by 2 h; for CLh,b (% hepatic blood flow): human Qh 20.7 mL/min/kg
Source text: (§1) Pooled mixed-gender cryopreserved metabolism-qualified (CYP1A2, 2B6, 2C8, 2C9, 2C19, 2D6, 3A4, UGT2B7, UDP-glucuronosyltransferase) primary human hepatocytes (catalog number 454504) sourced from free donors (who were free of HIV, HBV, HCV and other liver-related diseases) were purchased from Corning Life Sciences (Woburn MA, USA) and stored in liquid nitrogen until use.
(§2) The cryopreserved hepatocytes were thawed and the cells were suspended in recovery medium (Corning Life Sciences). According to the supplier’s instructions, the suspended cells were centrifuged (300g, 5 min), the recovery medium discarded and the cells were re-suspended in the plating medium. Viability of the suspended hepatocytes was computationally determined based on cell counts using a Bio-Rad automated cell counter (Hercules, CA, USA). The cell density was adjusted to approximately 1X10^6 viable cells/mL in the plating media.
(§3) PQ, racemic and enantiomers, prepared as a 1:1 mixture of 12-C and 13-C-labelled compounds, were separately incubated at a final concentration of 20 µM in the cell-containing plating media using the 48-well plate at 37 °C under a humidified atmosphere of 95 % air and 5 % CO2 in an Eppendorf incubator (Hauppauge, NY, USA) attached with a shaker set at 75 rpm. A separate control incubation of PQ and the two enantiomers in the cell-free hepatocyte media was performed to detect any non-enzymatically generated product. Metabolic reactions were halted by the addition of two volumes of ice-cold methanol containing 0.5 µg/mL 6-d3-methoxyprimaquine as an internal standard at predetermined time intervals. This mixture was vortexed and kept at −20 °C for at least 4 h before further analysis. Parallel incubation of substrate-free hepatocytes was performed. At each time point, aliquots were taken for cell viability measurement.
(§4) In preparation for HPLC–MS analysis, samples were centrifuged (10,000g, 10 min) and clear supernatants were dried using a Speedvac. The dried samples were re-suspended in 150 µL methanol, centrifuged and clear supernatants were transferred to HPLC sample vials for analysis.
(§5) The analytical method for simultaneous analysis of primaquine and its metabolites using the Ultra-High Performance Liquid Chromatography-Mass Spectrometry (UHPLC-QToF-MS), as earlier developed and reported was employed in this study. […] Details of the chromatography set-up are published.
(§6) Initial half-life (t^1/2) and elimination rate constants (λ = ln2/t^1/2) of PQ in hepatocyte incubates were calculated by log-linear regression of PQ concentrations profiled against time using data from the sampling points of the 20 µM PQ incubates. The intrinsic clearance in vitro (CLint in vitro) was calculated from λ and the cell density in the respective incubation (number of viable hepatocytes per mL at time zero) and scaled up to the intrinsic clearance in vivo (CLint in vivo) using the human liver mass (25.7 g/kg body mass) and the hepatocellularity (number of hepatocytes per gram of liver = 99 millions cells/g liver): CLint in vitro = λ/cell density. CLint in vivo = CLint in vitro × liver mass × heptocellularity. From CLint in vivo and the hepatic blood flow [Q (20.7 mL/min)/kg body mass], the hepatic metabolic blood clearance (CLh,b) was predicted using the well-stirred model: CLh,b = (CLint in vivo × Q)/(CLint in vivo + Q).
(§7) Since this estimation was for comparisons between enantiomers only, no corrections were made for the free fractions in vitro or in vivo—i.e. they were assumed to be identical.

recombinant human CYP2D6 = test system: recombinant human CYP2D6; design: method as in PMID 25518709; settings: cited from earlier work; for depletion of PQ enantiomers: 2 h incubation with recombinant human CYP2D6 ref 12
malaria = test system: malaria; design: method as in PMID 24913163; settings: suppressive and prophylactic assays, mice ref 8; cited from earlier work
Pneumocystis carinii = test system: Pneumocystis carinii; design: method as in PMID 24913163; settings: mice ref 8; cited from earlier work
[2] = design: method as in PMID 24913163, PMID 25267666; settings: beagle dogs and mouse models ref 8, 9; cited from earlier work
[3] = design: method as in PMID 24913163, PMID 25267666; settings: beagle dogs, humanized mouse model and monkeys ref 8, 9; cited from earlier work
[4] = Substrate depletion / intrinsic clearance of PQ and its enantiomers in cryopreserved human hepatocytes; settings: both, human; for half-life at 20 µM: hepatocytes, t½ (initial half-life), human hepatocytes
Source text: as §1, §2, §3, §4, §5, §6, §7

[5] = test system: primary human hepatocytes; experiment: Hepatocyte viability time course by cell counts in presence and absence of PQ; format: cell-based
Method: Parallel incubation of substrate-free hepatocytes was performed.

[6] = design: method as in PMID 25637634; settings: cited from earlier work
[7] = design: method as in PMID 25645856; settings: mice, therapeutic doses ref 22; cited from earlier work
[8] = test system: primary human hepatocytes; format: in vitro ADME; settings: for enantiomer from which the metabolite is generated: 20 µM (+)-, (−)- and (±)-PQ; for amount detected: peak areas too minute to profile
Method: A separate control incubation of PQ and the two enantiomers in the cell-free hepatocyte media was performed to detect any non-enzymatically generated product. Metabolic reactions were halted by the addition of two volumes of ice-cold methanol containing 0.5 µg/mL 6-d3-methoxyprimaquine as an internal standard at predetermined time intervals. This mixture was vortexed and kept at −20 °C for at least 4 h before further analysis. Parallel incubation of substrate-free hepatocytes was performed. At each time point, aliquots were taken for cell viability measurement.
as §4, §5
Metabolites in the accurate mass data were found using the Metabolynx® software. The data were searched using predicted metabolite mass, mass defects, isotope, and fragmentation patterns. Each sample was subjected to data acquisition in full scan and data-dependent positive MS/MS, targeted MS/MS (ESI positive ionization mode) and high-resolution MS (HRMS) modes using the Waters ACQUITY™ XEVO QTOF Mass Spectrometer (Waters Corporation, Manchester, UK) connected to the UHPLC system via an electrospray ionization (ESI) interface. Metabolites were distinguished from artifacts and unrelated products by the presence of twin peaks with a mass difference of six, arising from the six labels in the 1:1 mixture of 12-C and 13-C-labelled PQ. The Identification of each metabolite was assisted by its HRMS data, which were used to calculate their elemental compositions. The full scan mass data were screened and filtered using Waters MetaboLynx XS software. The qualitative metabolite identification was performed using this software package.

[9] = design: method as in PMID 24913163, PMID 25267666; settings: monkeys, higher than therapeutic doses ref 8, 9; cited from earlier work
[10] = Control incubation in cell-free hepatocyte media (non-enzymatic products); format: in vitro ADME
Method: as §3

[11] = design: method as in PMID 25267666, PMID 25637634, PMID 23378100; settings: after racemic PQ in mice, monkeys and humans ref 9, 15, 16; cited from earlier work
[12] = human hepatocytes, computed from λ
[13] = human hepatocytes, computed from λ (ln2/λ)

Compound: COc1cc(N[C@@H](C)CCCN)c2ncccc2c1 [(+)-PQ, (+)-(S)-primaquine]
λ elimination rate constant [1]: 0.19 h⁻¹ | t½ (initial half-life) [1, 12]: 217 min | t½ (initial half-life) [1, 13]: 217 min | substrate depleted [1]: 16% | rate of hepatic clearance of (+)-PQ relative to that of (−)-PQ ([1]; extrapolated in vivo human hepatic blood clearance, well-stirred liver model): 45% | CLh,b (% hepatic blood flow) [1]: 24 % hepatic blood flow | initial half-life compared with (−)-PQ ([1]; human hepatocytes): more than three times longer | depletion of PQ enantiomers (recombinant human CYP2D6): 50% | rate of metabolism compared to (−)-PQ (recombinant human CYP2D6; in vitro with recombinant human CYP2D6 ref 12): significantly higher | anti-malarial activity compared with (−)-PQ (malaria): more active than (−)-PQ | Pneumocystis carinii pneumonia efficacy compared with (−)-PQ (Pneumocystis carinii): more active than (−)-PQ | acute toxicity [2]: higher acute toxicity than (−)-PQ | methaemoglobinemia [3]: higher methaemoglobinemia than (−)-PQ

Compound: COc1cc(NC(C)CCCN)c2ncccc2c1 (racemic) [(±)-PQ, primaquine]
Km [4]: 37 µM | k el at 20 µM [4]: 9.44e-05 s⁻¹ | half-life at 20 µM ([4]; computed from λ): 122 min | half-life at 20 µM ([4]; computed from λ (ln2/λ)): 122 min | substrate depleted [1]: 30% | CLh,b (% hepatic blood flow) [1]: 36 % hepatic blood flow | direct hepatocellular toxicity (viable cell counts vs drug-free incubation) ([5]; 20 µM, up to 2 h): absence of PQ-induced direct hepatocellular toxicity | hepatocyte viability ([5]; at the 2 h termination time, drug-free and PQ-containing incubates similar): 88 % of the starting value | expected peak plasma concentrations ([6]; humans ref 15): < 2 µM | liver concentration relative to plasma [7]: about 20 times

Compound: COc1cc(NC(C)CCCN)c2nccc(O)c2c1 (stereo not drawn) [4-hydroxyprimaquine]
enantiomer from which the metabolite is generated [8]: exclusively generated from the (+)-PQ | amount detected [8]: trace amounts

Compound: COc1cc([N+]2=CCCC2C)c2ncccc2c1 (stereo not drawn)
enantiomer from which the metabolite is generated [8]: preferentially generated from the (−)-PQ

Compound: COc1cc(NC(C)CCCN)c2ncccc2c1 (single isomer, unassigned; (-)) [(−)-PQ, (−)-primaquine]
λ elimination rate constant [1]: 0.64 h⁻¹ | t½ (initial half-life) [1, 12]: 65 min | t½ (initial half-life) [1, 13]: 65.4 min | substrate depleted [1]: 42% | CLh,b (% hepatic blood flow) [1]: 51 % hepatic blood flow | in vitro clearance compared with (+)-PQ ([1]; human hepatocytes): three times faster | depletion of PQ enantiomers (recombinant human CYP2D6): 30% | liver damage [9]: reversible liver damage

Compound: COc1cc(NC(C)CCCN)c2nc(O)ccc2c1 (stereo not drawn) [2-hydroxyprimaquine]
enantiomer from which the metabolite is generated [8]: exclusively generated from the (+)-PQ | amount detected [8]: trace amounts

Compound: COc1cc(NC(C)CCC(=O)OC2OC(C(=O)O)C(O)C(O)C2O)c2ncccc2c1 [CPQ glucuronide, Carboxyprimaquine-β-D-glucuronide]
enantiomer from which the metabolite is generated [8]: preferentially generated from the (−)-PQ

Compound: COc1cc(N2C(=O)CCC2C)c2ncccc2c1 (stereo not drawn)
enantiomer from which the metabolite is generated [8]: preferentially generated from the (−)-PQ

The next lines start with results.

enantiomer from which the metabolite is generated [8]: exclusively formed from (+)-PQ | enantiomer from which the metabolite is generated ([8]; listed as carbamoyl glucuronide of PQ): exclusively generated from (+)-PQ
Compound: COc1cc(NC(C)CCCNC(=O)OC2OC(C(=O)O)C(O)C(O)C2O)c2ncccc2c1 [N-carbamoyl glucuronide of PQ, (S)-primaquine-N-carbamoyl-β-D-glucuronide]

enantiomer from which the metabolite is generated [8]: preferentially generated from the (−)-PQ
Compound: COc1cc(NC(C)CCCOC2OC(C(=O)O)C(O)C(O)C2O)c2ncccc2c1 [glucuronide of PQ alcohol, Primaquine alcohol-O-β-D-glucuronide]

enantiomer from which the metabolite is generated [8]: preferentially generated from the (−)-PQ
Compound: COc1cc(NC(C)CCCO)c2ncccc2c1 (stereo not drawn) [PQ terminal alcohol, primaquine alcohol]

enantiomer from which the metabolite is generated [8]: preferentially generated by (+)-PQ | enantiomer from which the metabolite is generated ([8]; listed as PQ conjugate formed by apparent N-glucosylation): preferentially formed with (+)-PQ | enantiomer from which the metabolite is generated ([8]; listed as glycosylated PQ): preferentially generated from (+)-PQ | time of peak formation ([8]; biphasic increase): ≤ 30 min | formation in cell-free media [10]: formed non-enzymatically
Compound: COc1cc(NC(C)CCCNC2OC(CO)C(O)C(O)C2O)c2ncccc2c1 (stereo not drawn) [glycosylated conjugate of PQ]

enantiomer from which the metabolite is generated [8]: preferentially generated from the (−)-PQ | portion of metabolite generated within 30 min ([8]; 2 h incubation): 75%
Compound: COc1cc(NC(C)CCC(=O)O)c2ncccc2c1 (stereo not drawn) [CPQ, carboxyprimaquine]
CPQ peak plasma concentration from (−)-PQ relative to from (+)-PQ ([6]; human, after racemic primaquine ref 15): 15 times | enantiomeric form in plasma [11]: predominantly the (−)-form
